The values below come from US9994558B2, “Multicyclic compounds and methods of using same” (Karyopharm Therapeutics Inc., priority 2013, dated 2018).

Where only a bound is given, the exact number is not on record here.

What all share (assay type): cell-based
The subject of one experiment is 3T3 cells. Nature of the experiment: MTT cell proliferation assay, 3T3 cells. The note with it: Mus musculus, NIH3T3; 3T3 fibroblast cells; incubation approximately 64-72 hours. The protocol: (§1) The MTT cell proliferation assay was used to study the cytotoxic properties of the compounds. The assay was performed according to the method described by Roche Molecular Biochemicals, with minor modifications. The assay is based on the cleavage of the tetrazolium salt, MTT, in the presence of an electron-coupling reagent. The water-insoluble formazan salt produced must be solubilized in an additional step. Cells grown in a 96-well tissue culture plate were incubated with the MTT solution for approximately 4 hours. After this incubation period, a water-insoluble formazan dye formed. After solubilization, the formazan dye was quantitated using a scanning multi-well spectrophotometer (ELISA reader). […] The cells were seeded at 5,000-10,000 cells in each well of 96-well plate in 100 μL of fresh culture medium and were allowed to attach overnight. The stock solutions of the compounds were diluted in 100 μL cell culture medium to obtain eight concentrations of each test compound, ranging from 1 nM to 30 μM. […] All optical densities were measured at 490 nm using a Vmax Kinetic Microplate Reader (Molecular Devices). In most cases, the assay was performed in duplicate and the results were presented as a mean percent inhibition to the negative control±SE. The following formula was used to calculate the percent of inhibition. Inhibition (%)=(1−(ODo/OD))×100.
(§2) The compounds were tested against MS751, Z138 and 3T3 cells. The MS751 cell line is derived from a metastasis to lymph node of human cervix from a patient diagnosed with squameous cell carcinoma of the cervix. The […] cell line is a mature B-cell acute lymphoblastic leukemia cell line derived from a patient with chronic lymphocytic leukemia. 3T3 cells are standard fibroblast cells; they were originally isolated from Swiss mouse embryo tissue.
On the technique in general: Tetrazolium dyes change colour on reduction, which living cells bring about.

Another experiment deals with UCH-2 cell line. Put plainly: MTT cell proliferation assay, UCH-2 cells. The settings on record: UCH2; chordoma cell line. The procedure: as §1, with “(%)=(1−(ODo/OD))×100. […]” for “(%)=(1−(ODo/OD))×100.”
A further experiment deals with NHDF cells. Put plainly: MTT cell proliferation assay, NHDF cells. The note with it: normal human dermal fibroblast cells. The procedure: as §1, with “(%)=(1−(ODo/OD))×100. […]” for “(%)=(1−(ODo/OD))×100.”
For the next experiment, the system named is MS751 cells. Nature of the experiment: MTT cell proliferation assay, MS751 cells. The settings on record: Homo sapiens, incubation approximately 64-72 hours. The procedure:
as §1, §2

The test system of the next experiment is Hep G2 cells. Put plainly: MTT cell proliferation assay, Hep G2 cells. The note with it: HepG2; human hepatocellular carcinoma cells. The procedure: as §1, with “(%)=(1−(ODo/OD))×100. […]” for “(%)=(1−(ODo/OD))×100.”
The next experiment deals with L3.6pl cell line. Nature of the experiment: MTT cell proliferation assay, L3.6pl cells. The settings on record: Homo sapiens, pancreatic cancer cell line. The protocol: as §1, with “(%)=(1−(ODo/OD))×100. […]” for “(%)=(1−(ODo/OD))×100.”
A further experiment deals with SNU-182 cell line. Put plainly: MTT cell proliferation assay, SNU-182 cells. The note with it: human hepatoma cell line. The protocol:
as §1, with “(%)=(1−(ODo/OD))×100. […]” for “(%)=(1−(ODo/OD))×100.”

The next experiment has as its system Z138 cells. Put plainly: MTT cell proliferation assay, Z138 cells. The note with it: Homo sapiens, Z-138, incubation approximately 64-72 hours. The procedure:
as §1, §2

A further experiment concerns HEP 3B cells. Put plainly: MTT cell proliferation assay, HEP 3B cells. The note with it: Hep3B; human hepatocellular carcinoma cells. The protocol:
as §1, with “(%)=(1−(ODo/OD))×100. […]” for “(%)=(1−(ODo/OD))×100.”

As to `Nc1ccc(/C=C/C(=O)NCCOc2ccc(-c3ccc(C(=O)N4CC(F)(F)C4)cc3)cc2Cl)cn1` [Compound 318, (E)-3-(6-aminopyridin-3-yl)-N-(2-(3-chloro-4′-(3,3-difluoroazetidine-1-carbonyl)biphenyl-4-yloxy)ethyl)acrylamide], the IC50 (as a rule, the concentration that gives 50% inhibition) in the experiment with 3T3 cells was 0.1 to 5 µM; in the experiment with UCH-2 cell line, above 30 µM; in the experiment with NHDF cells, below 0.1 µM; in the experiment with MS751 cells, below 0.1 µM; in the experiment on Hep G2 cells, below 0.1 µM; in the experiment with L3.6pl cell line, below 0.1 µM. Also, the IC50 in the experiment on SNU-182 cell line, with Z138 cells and in the experiment with HEP 3B cells was below 0.1 µM each time.
Regarding `CC(=O)c1ccc(-c2ccc(OCCNC(=O)/C=C\c3cccnc3)c(Cl)c2)s1` [Compound 327, (Z)—N-(2-(4-(5-acetylthiophen-2-yl)-2-chlorophenoxy)ethyl)-3-(pyridin-3-yl)acrylamide], the IC50 was above 10 µM with 3T3 cells, 5 to 10 µM with MS751 cells and 0.1 to 5 µM with Z138 cells.
The matching figures for `CC(C)(O)c1ccc(-c2ccc(OCCNC(=O)/C=C/c3cccnc3)c(Cl)c2)s1` [Compound 320, (E)-N-(2-(2-chloro-4-(5-(2-hydroxypropan-2-yl)thiophen-2-yl)phenoxy)ethyl)-3-(pyridin-3-yl)acrylamide]: 5 to 10 µM, 0.1 to 5 µM and 0.1 to 5 µM.
The matching figures for `CC(C)(O)c1ccc(-c2ccc(OCCNC(=O)/C=C/c3ccc(N)nc3)c(Cl)c2)s1` [Compound 319, (E)-3-(6-aminopyridin-3-yl)-N-(2-(2-chloro-4-(5-(2-hydroxypropan-2-yl)thiophen-2-yl)phenoxy)ethyl)acrylamide]: above 10 µM, 0.1 to 5 µM and 0.1 to 5 µM.
The matching figures for `CC(=O)c1ccc(-c2ccc(OCCNC(=O)/C=C/c3cccnc3)c(Cl)c2)s1` [Compound 300, (E)-N-(2-(4-(5-acetylthiophen-2-yl)-2-chlorophenoxy)ethyl)-3-(pyridin-3-yl)acrylamide]: above 10 µM, 0.1 to 5 µM and 0.1 to 5 µM.
With `Nc1ccc(/C=C/C(=O)NCCOc2ccc(-c3ccc(C(=O)N4CC(F)(F)C4)cc3)cc2C(F)(F)F)cn1` [Compound 338, (E)-3-(6-aminopyridin-3-yl)-N-(2-(4′-(3,3-difluoroazetidine-1-carbonyl)-3-(trifluoromethyl)biphenyl-4-yloxy)ethyl)acrylamide], the IC50 in the experiment on 3T3 cells, in the experiment on MS751 cells and with Z138 cells was below 0.1 µM in each case.
As to `CC(C)(CNC(=O)/C=C/c1ccc(N)nc1)Oc1ccc(F)c(-c2ccc(C(=O)N3CCOCC3)cc2)c1` [Compound 340, (E)-3-(6-aminopyridin-3-yl)-N-(2-(6-fluoro-4′-(morpholine-4-carbonyl)biphenyl-3-yloxy)-2-methylpropyl)acrylamide], the values for the IC50 in the experiment on 3T3 cells, in the experiment on MS751 cells and in the experiment on Z138 cells were above 10 µM, 0.1 to 5 µM and below 0.1 µM, respectively.
The matching figures for `CC(=O)c1ccc(-c2ccc(OCCNC(=O)C#Cc3cccnc3)c(Cl)c2)s1` [Compound 309, N-(2-(4-(5-acetylthiophen-2-yl)-2-chlorophenoxy)ethyl)-3-(pyridin-3-yl)propiolamide]: above 10 µM, above 10 µM and above 10 µM.
In the case of `CC(=O)c1ccc(-c2ccc(Cl)c(OCCNC(=O)/C=C/c3cccnc3)c2)s1` [Compound 303, (E)-N-(2-(5-(5-acetylthiophen-2-yl)-2-chlorophenoxy)ethyl)-3-(pyridin-3-yl)acrylamide], the values for the half-inhibitory concentration (IC50) in the experiment with 3T3 cells, in the experiment on MS751 cells and in the experiment on Z138 cells were above 10 µM, 0.1 to 5 µM and 0.1 to 5 µM, respectively.
`Nc1ccc(/C=C/C(=O)NCCS(=O)(=O)c2ccc(-c3ccc(C(=O)N4CC(F)(F)C4)cc3)cc2Cl)cn1` [Compound 337, (E)-3-(6-aminopyridin-3-yl)-N-(2-(3-chloro-4′-(3,3-difluoroazetidine-1-carbonyl)biphenyl-4-ylsulfonyl)ethyl)acrylamide]: the IC50 with 3T3 cells, in the experiment with MS751 cells and in the experiment on Z138 cells was above 10 µM throughout.
For the molecule `CC(=O)c1ccc(-c2ccc(OCCNC(=O)/C=C/c3cccnc3C)c(Cl)c2)s1` [Compound 305, (E)-N-(2-(4-(5-acetylthiophen-2-yl)-2-chlorophenoxy)ethyl)-3-(2-methylpyridin-3-yl) acrylamide], the IC50 with 3T3 cells, in the experiment on MS751 cells and in the experiment on Z138 cells was above 10 µM in each case.
For `Nc1ccc(/C=C/C(=O)NCCOc2ccc(-c3ccc(C(=O)N4CCOCC4)cc3)cc2C(F)(F)F)cn1` [Compound 339, (E)-3-(6-aminopyridin-3-yl)-N-(2-(4′-(morpholine-4-carbonyl)-3-(trifluoromethyl)biphenyl-4-yloxy)ethyl)acrylamide], the IC50 is 0.1 to 5 µM with 3T3 cells, below 0.1 µM in the experiment with MS751 cells and below 0.1 µM in the experiment on Z138 cells.
